Test results taken from patent publication US11707539B2, “FAP-targeted radiopharmaceuticals and imaging agents, and uses related thereto” (Trustees of Tufts College, priority 2020, dated 2023).
Where a SMILES comes first, the peptide text is derived from it.

Key:
[1] = Stability in aqueous solution of pH about 3; conditions: during HPLC purification and subsequent lyophilization
[2] = Solubility in water after lyophilization
[3] = molecular target: recombinant human dipeptidyl peptidase IV (DPPIV) (Homo sapiens (Human), UniProt P27487); test: In vitro IC50 assay, dipeptidyl peptidase IV (Example 15); type: biochemical; conditions: Gly-Pro-AMC, room temperature
Description: (§1) The purpose of this assay is to determine the IC50 of various inhibitors against recombinant human dipeptidyl peptidase IV (DPPIV), fibroblast activation protein (FAP) or prolyl oligopeptidase (PREP).
(§2) The assays are conducted in the following steps: • 1 Dissolve the compound in DMSO to a final concentration of 100 mM. From this, prepare a 1 mM stock at pH 7.5 in 50 mM Tris, 140 mM NaCl Buffer (FAP)/pH 7.5 in 25 mM Tris, 250 mM NaCl Buffer/pH 8.0 140 mM NaCl Buffer (PREP). • 2. Serial dilute (1:10) the 1 mM compound stocks prepared previously into the appropriate assay buffer (FAP: 50 mM Tris, 140 mM NaCl, pH 7.5/PREP: 25 mM Tris, 0.25 M NaCl, pH 7.5/DPPIV: 25 mM Tris, pH 8.0) to one row of a 96-well plate. • 3. […] Dilute the enzymes into their appropriate assay buffers. The final enzyme concentrations should be 0.1, 1.2, and 0.6 nM for DPPIV, FAP and PREP respectively. Add 180 μL to each well needed in columns 2-10. Column 1 (A,B,C) should be prepared with 200 ul of appropriate assay buffer as control. Column 1 (D,E,F,G,H) should be prepared with 20 ul of appropriate assay buffer and 180 ul enzyme as no inhibitor control. • 5. Add 20 μL of the compound of interest from the dilution plate prepared in step 2 to columns 2-10 of the assay plate where appropriate. Each sample should be tested in triplicate. Allow this to incubate for 10 minutes at room temperature, shaking the plate for the first two minutes. • 6. Add 10 μL of 20× substrate prepared in step 3 to each well and allow this to incubate for 15 minutes at room temperature, shaking the plate for the first two minutes. • 7. Read the fluorescence at λex: 380, λem: 460. (DPcore=[dAla|dSerGly]-[boroPro|Pro-nitrile], XXaa=alpha-amino acid)

recombinant human FAP = recombinant human FAP (Homo sapiens (Human), UniProt Q12884); test: In vitro enzyme IC50 assay, FAP (Example 10); type: biochemical; conditions: 10 min preincubation at 25° C., Z-Gly-Pro-AMC
Description: Biological Materials: For the in vitro IC50 determination assays, recombinant human DPPIV, DPP9, FAP, and PREP were purchased from R&D Systems, and DPP8 was from Biomol International. Buffer systems used were A (25 mM Tris, pH 8.0), B (50 mM Tris, pH 7.5), C (50 mM Tris, 140 mM NaCl, pH 7.5), D (25 mM Tris, 250 mM NaCl, pH 7.5), and E (20 mM Tris, 20 mM KCl, pH 7.4). […] Substrate Specificity Assay. Peptide libraries (0.21 mM) were incubated for 24 h with 1 nM FAP in buffer E at 37° C. The reaction was quenched by the addition of 1.2 N HCl. The samples were analyzed by reverse-phase HPLC-MS on a Thermo Finnigan LCQ Duo, quantifying the peaks in the resulting base peak chromatograms. Relative cleavage values were determined by comparing the postquench abundance of intact peptides to those in the initial library.
In Vitro Enzyme IC50 Assays. Enzymatic activity of DPPIV, DPP8, DPP9, FAP, and PREP was measured at 25° C. on a Molecular Devices M2e multidetection microtiter plate reader, monitoring the fluorescence at an excitation wavelength of 380 nm and an emission wavelength of 460 nm. The substrate was either H-Gly-Pro-AMC for the DPPIV, DPP8, and DPP9 assays or Z-Gly-Pro-AMC for the FAP and PREP assays. The reaction mixture contained […], enzyme, buffer A (DPPIV and DPP9), buffer B (DPP8), buffer C (FAP), or buffer D (PREP) and a suitable amount of inhibitor (ranging between 10-4 and 10-11 M) in a total volume of 210 μL. The final enzyme concentrations were 0.1, 0.8, 0.4, 1.2, and 0.6 nM for DPPIV, DPP8, DPP9, FAP, and PREP, respectively. […] Those prepared in pH 2.0 solution were preincubated at 25° C. for 4 h prior to dilution. Immediately prior to the commencement of the experiment, the 100 mM stocks were further diluted to 10−3 M in the appropriate assay buffer, from which 1:10 serial dilutions were prepared. All inhibitors were tested in triplicate.

[4] = molecular target: recombinant human fibroblast activation protein (FAP) (Homo sapiens (Human), UniProt Q12884); test: In vitro IC50 assay, fibroblast activation protein (Example 15); type: biochemical; conditions: Z-Gly-Pro-AMC, room temperature; read-out: FAP IC50
Description: as §1, §2

recombinant human FAP, sequence (Q12884 whole entry): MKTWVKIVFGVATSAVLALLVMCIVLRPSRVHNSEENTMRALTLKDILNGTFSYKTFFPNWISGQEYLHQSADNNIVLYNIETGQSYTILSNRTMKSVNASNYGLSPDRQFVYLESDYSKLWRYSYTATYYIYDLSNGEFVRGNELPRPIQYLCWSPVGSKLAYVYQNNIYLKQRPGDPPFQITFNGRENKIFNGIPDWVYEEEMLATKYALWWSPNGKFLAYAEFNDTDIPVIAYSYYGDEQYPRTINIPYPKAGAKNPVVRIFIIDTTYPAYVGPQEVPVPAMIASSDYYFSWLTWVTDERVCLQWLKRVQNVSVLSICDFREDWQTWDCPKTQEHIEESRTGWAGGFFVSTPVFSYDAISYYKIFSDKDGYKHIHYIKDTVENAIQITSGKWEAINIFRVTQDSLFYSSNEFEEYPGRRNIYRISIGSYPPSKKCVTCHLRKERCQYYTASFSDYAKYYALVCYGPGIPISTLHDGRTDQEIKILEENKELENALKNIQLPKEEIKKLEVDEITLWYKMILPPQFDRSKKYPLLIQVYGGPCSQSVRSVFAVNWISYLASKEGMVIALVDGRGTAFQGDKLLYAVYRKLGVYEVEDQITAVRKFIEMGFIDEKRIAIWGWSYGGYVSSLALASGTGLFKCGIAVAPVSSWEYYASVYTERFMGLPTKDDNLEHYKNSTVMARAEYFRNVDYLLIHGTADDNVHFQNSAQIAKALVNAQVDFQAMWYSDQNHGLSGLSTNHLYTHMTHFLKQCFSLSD
recombinant human fibroblast activation protein (FAP), sequence (Q12884 whole entry): as above
recombinant human dipeptidyl peptidase IV (DPPIV), sequence (P27487 whole entry): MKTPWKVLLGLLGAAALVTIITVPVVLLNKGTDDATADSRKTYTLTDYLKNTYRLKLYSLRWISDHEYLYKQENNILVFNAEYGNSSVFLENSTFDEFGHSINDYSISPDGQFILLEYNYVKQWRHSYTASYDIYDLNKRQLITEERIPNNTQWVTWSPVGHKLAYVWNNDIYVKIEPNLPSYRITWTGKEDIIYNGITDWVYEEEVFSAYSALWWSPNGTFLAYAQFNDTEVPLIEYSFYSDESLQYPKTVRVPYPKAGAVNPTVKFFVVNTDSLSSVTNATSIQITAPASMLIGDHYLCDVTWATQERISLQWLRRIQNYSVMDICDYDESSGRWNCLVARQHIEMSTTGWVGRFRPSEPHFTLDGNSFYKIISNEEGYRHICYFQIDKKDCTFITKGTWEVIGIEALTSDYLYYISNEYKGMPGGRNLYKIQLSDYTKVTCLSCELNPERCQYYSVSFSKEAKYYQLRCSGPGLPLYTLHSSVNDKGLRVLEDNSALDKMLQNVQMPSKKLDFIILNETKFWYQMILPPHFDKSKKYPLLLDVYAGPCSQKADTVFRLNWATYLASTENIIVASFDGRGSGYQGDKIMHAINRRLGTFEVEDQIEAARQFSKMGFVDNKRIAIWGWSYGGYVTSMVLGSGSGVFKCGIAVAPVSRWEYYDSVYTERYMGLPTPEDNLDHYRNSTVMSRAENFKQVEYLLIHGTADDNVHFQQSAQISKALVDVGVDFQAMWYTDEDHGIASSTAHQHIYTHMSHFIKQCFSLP

Molecule | degradation in aqueous solution [1] | solubility [2] | IC50 [3] | IC50 (recombinant human FAP) | IC50 [4]
C[C@@H](NC(=O)c1ccc(CNC(=O)CN2CCN(CC(=O)O)CCN(CC(=O)O)CCN(CC(=O)O)CC2)cc1)C(=O)N1CCC[C@H]1B(O)O [Compound 6555, DOTA-aminomethyl-Bz-D-Ala-boroPro] | did not observe any sign of degradation | > 50 mg/mL | > 100000 nM | – | –
C[C@@H](NC(=O)c1ccc(CNC(=O)CN2CCN3CCN4CCN(CC2)CC(=O)[O][Ga]([O]C(=O)C3)[O]C(=O)C4)cc1)C(=O)N1CCC[C@H]1B(O)O [Compound 6555GA] | did not observe any sign of degradation | > 50 mg/mL | > 100000 nM | – | –
C[C@@H](NC(=O)[C@H]1CC[C@H](CNC(=O)CN2CCN3CCN4CCN(CC2)CC(=O)[O][Lu]([O]C(=O)C3)[O]C(=O)C4)CC1)C(=O)N1CCC[C@H]1B(O)O [Compound 6952LU, DOTA(Lu)-TXA-D-alaboroPro] | did not observe any sign of degradation | > 50 mg/mL | > 100000 nM | – | –
DOTA[Cu(II)]-EACA-HyBz-D-Ala-boroPro [Compound 6486] | – | – | – | 2.8 nM | 2.8 nM
C[C@@H](NC(=O)[C@H](CO)NC(=O)CN1CCN2CCN(CC(=O)O)CCN(CC1)CC(=O)[O][Cu][O]C(=O)C2)C(=O)N1CCC[C@H]1B(O)O [Compound 6509CU, DOTA[(Cu(II)]-Ser-D-Ala-boroPro] | – | – | – | 128 nM | 128 nM
C[C@@H](NC(=O)c1ccc(CNC(=O)CN2CCN3CCN4CCN(CC2)CC(=O)[O][Lu]([O]C(=O)C3)[O]C(=O)C4)cc1)C(=O)N1CCC[C@H]1B(O)O [Compound 6555LU] | did not observe any sign of degradation | > 50 mg/mL | > 100000 nM | – | –
CC(C)[C@H](NC(=O)CNC(=O)CNC(=O)CN1CCN2CCN(CC(=O)O)CCN(CC1)CC(=O)[O][Cu][O]C(=O)C2)C(=O)N[C@H](C)C(=O)N1CCC[C@H]1B(O)O [Compound 6522CU, DOTA[(Cu(II)]-Gly-Gly-Val-D-Ala-boroPro] (HELM PEPTIDE1{[O=C(O)CN1CCN2CCN(CC(=O)[*:2])CCN(CC1)CC(=O)[O][Cu][O]C(=O)C2].G.G.V.[dA].[OB(O)[C@@H]1CCCN1[*:1]]}$$$$V2.0) | – | – | – | 8.7 nM | 3.5 nM
C[C@H](NC(=O)CN1CCN(CC(=O)O)CCN(CC(=O)O)CCN(CC(=O)O)CC1)C(=O)N[C@H](C)C(=O)N1CCC[C@H]1B(O)O [Compound 6511, DOTA-Ala-D-Ala-boroPro] | – | – | – | 71.7 nM | –
C[C@@H](NC(=O)CNC(=O)CN1CCN(CC(=O)O)CCN(CC(=O)O)CCN(CC(=O)O)CC1)C(=O)N1CCC[C@H]1B(O)O [Compound 6512, DOTA-Gly-D-Ala-boroPro] | – | – | – | 73.1 nM | –
C[C@@H](NC(=O)[C@H]1CC[C@H](CNC(=O)CN2CCN3CCN4CCN(CC2)CC(=O)[O][Ga]([O]C(=O)C3)[O]C(=O)C4)CC1)C(=O)N1CCC[C@H]1B(O)O [Compound 6952GA, DOTA(Ga)-TXA-D-alaboroPro] | did not observe any sign of degradation | > 50 mg/mL | – | – | –
C[C@@H](NC(=O)c1ccc(NNC(=O)CCCNC(=O)CN2CCN3CCN4CCN(CC2)CC(=O)[O][Gd]([O]C(=O)C3)[O]C(=O)C4)cc1)C(=O)N1CCC[C@H]1B(O)O [Compound 6489Gd, DOTA[Gd]-GABA-HyBz-D-Ala-boroPro] | – | – | – | 1.1 nM | –
CC(C)[C@H](NC(=O)CN1CCN(CC(=O)O)CCN(CC(=O)O)CCN(CC(=O)O)CC1)C(=O)N[C@H](C)C(=O)N1CCC[C@H]1B(O)O [Compound 6508, DOTA-Val-DAla-boroPro] | – | – | – | 62 nM | –
